Test results reported in patent US20100150845A1, “SYSTEM AND METHOD FOR THE DELIVERY OF A SANITIZING FOAM” (GREEN SOURCE AUTOMATED, LLC, priority 2008, published 2010).
Like-named read-outs stand apart in the source and are kept apart here.

How the values were obtained:
[1] = cited from earlier work
[2] = Gas dissolved in teat dip solution under pressure; type: physicochemical; conditions: standard room temperature and 100 psi pressure
Excerpt: The pressure vessel was constructed from a 0.1 m outside diameter piece of stainless steel tubing. The ends of the tube were capped with tri clover fittings to allow ease of access. The tri-clover caps were modified by adding two entry points on the proximal cap. One entry point on the proximal cap is to allow propellant/diffused gas to be introduced and the other is used to bleed off atmospheric air, when the tank was initially filled with propellant/diffused gas and to relieve pressure before refilling. On the distal cap of the tank two openings were added, each with tubing securely attached and each tube going to a manual shut off valve with a spray nozzle attached. A propellant/diffusion gas source with regulator was attached to the pressure vessel through the entry point on the proximal cap. The pressure vessel is filled about half full with teat dip solution, closed and the tank is pressurized with approximately 100 pounds per square inch (psi) of propellant/diffusion gas, except for the 50% carbon dioxide and 50% nitrous oxide propellant/diffusion gas which is set at 150 psi. The distance and angle from nozzle to teat is 0.15 m and 45 degrees from the horizontal (which were set to mimic a robotic tool used for some embodiments). […]

In the case of `O=C=O` [CO2, Carbon dioxide], the vapor pressure ([1]; at 185° K.) is listed as “approximately 0.45 bar”, the vapor pressure ([1]; at 290° K.) is listed as “approximately 50 bar” and the “volumes of gas dissolved per volume of dip solution” value [2] is listed as “approximately 4.5 volumes”.

For `[N-]=[N+]=O` [Example N2O, nitrous oxide], the vapor pressure ([1]; at 185° K.) is listed as “approximately 1 bar”, the vapor pressure ([1]; at 290° K.) is listed as “approximately 50 bar” and the “volumes of gas dissolved in one volume of the dip solution” value [2] is listed as “approximately four”.
